Calls of active or inactive are those of the source. The calls are words filed in the database; no cut-off is given here.
Columns and labels:
[1] = tested on: NAMALVA; assay: Antiproliferative activity against human NAMALVA cells assessed as reduction in cell viability upto 10 uM measured after 72 hrs under dark condition by CellTiter-Glo luminescent assay; type: functional, cell-based
[2] = biological target: T1, Protein cereblon/Bromodomain-containing protein 4 (Homo sapiens, UniProt O60885+Q96SW2); assay: Photocaged-PROTAC activity at CRBN/BRD4 in human Ramos cells assessed as […] Brd4 protein degradation pre-incubated for 2 hrs followed by visible light irradiation at 405 nM for 3 mins and measured after 12 hrs by Western blot analysis; type: cell-based
T1 sequence (Q96SW2 whole entry, looked up, other chains not shown): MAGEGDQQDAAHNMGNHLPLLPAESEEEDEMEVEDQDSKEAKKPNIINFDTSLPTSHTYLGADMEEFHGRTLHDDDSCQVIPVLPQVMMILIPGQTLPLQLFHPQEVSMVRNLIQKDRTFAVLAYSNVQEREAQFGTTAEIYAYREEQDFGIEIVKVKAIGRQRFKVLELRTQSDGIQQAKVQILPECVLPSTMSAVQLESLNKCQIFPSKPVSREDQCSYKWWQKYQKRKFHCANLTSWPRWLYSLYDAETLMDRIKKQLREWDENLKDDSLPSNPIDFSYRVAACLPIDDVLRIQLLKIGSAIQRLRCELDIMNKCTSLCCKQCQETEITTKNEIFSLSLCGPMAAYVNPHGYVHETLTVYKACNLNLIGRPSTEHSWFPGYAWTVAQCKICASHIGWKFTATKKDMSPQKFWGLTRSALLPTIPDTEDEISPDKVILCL

[3] = tested on: NAMALVA; assay: Antiproliferative activity against human NAMALVA cells assessed as reduction in cell viability pre-incubated for 2 hrs under dark followed by visible light irradiation for 3 mins at 405 nm and measured after 72 hrs under dark condition by CellTiter-Glo luminescent assay; type: functional, cell-based; conditions: light or radiation study
[4] = biological target: T1, Protein cereblon/Bromodomain-containing protein 4; assay: Photocaged-PROTAC activity at CRBN/BRD4 in human Ramos cells assessed as Brd4 protein degradation upto 3 uM pre-incubated for 2 hrs under dark followed by 365 nm UV light irradiation for 3 mins and measured after 12 hrs by Western blot analysis; type: cell-based; conditions: time 14.0 hrs
[5] = biological target: T1, Protein cereblon/Bromodomain-containing protein 4; assay: Photocaged-PROTAC activity at CRBN/BRD4 in human Ramos cells assessed as […] Brd4 protein degradation under dark condition pre-incubated for 12 hrs by Western blot analysis; type: cell-based
[6] = biological target: T1, Protein cereblon/Bromodomain-containing protein 4; assay: Photocaged-PROTAC activity at CRBN/BRD4 in human Ramos cells assessed as Brd4 protein degradation at 0.03 to 10 uM incubated for 12 hrs under dark by Western blot analysis; type: cell-based; conditions: dose 0.03-10 µM
[7] = biological target: T1, Protein cereblon/Bromodomain-containing protein 4; assay: Photocaged-PROTAC activity at CRBN/BRD4 in human Ramos cells assessed as Brd4 protein degradation at 0.03 to 10 uM pre-incubated for 2 hrs under dark followed by 365 nm UV light irradiation for 3 mins and measured after 12 hrs by Western blot analysis; type: cell-based; conditions: dose 0.03-10 µM
[8] = biological target: T1, Protein cereblon/Bromodomain-containing protein 4; assay: Photocaged-PROTAC activity at CRBN/BRD4 in human Ramos cells assessed as […] Brd4 protein degradation pre-incubated for 2 hrs followed by UV light irradiation at 365 nM for 3 mins and measured after 12 hrs by Western blot analysis; type: cell-based
[9] = biological target: T1, Protein cereblon/Bromodomain-containing protein 4; assay: Photocaged-PROTAC activity at CRBN/BRD4 in human Ramos cells assessed as reduction in Brd4 protein level at 0.03 to 10 uM incubated for 12 hrs under dark by Western blot analysis; type: cell-based; conditions: dose 0.03-10 µM
[10] = biological target: T1, Protein cereblon/Bromodomain-containing protein 4; assay: Photocaged-PROTAC activity at CRBN/BRD4 in human Ramos cells assessed as reduction in Brd4 protein level at 0.03 to 10 uM pre-incubated for 2 hrs followed by visible light irradiation at 405 nm for 3 mins and measured after 12 hrs by Western blot analysis; type: cell-based; conditions: dose 0.03-10 µM, time 14.0 hrs
[11] = Photoactivation of the Photocaged-PROTAC assessed as uncaging rate measuring dBET1 release under visible light measured at 1 min by HPLC analysis
[12] = tested on: NAMALVA; assay: Antiproliferative activity against human NAMALVA cells assessed as reduction in cell viability upto 10 uM measured after 72 hrs by CellTiter-Glo luminescent assay; type: functional, cell-based
[13] = biological target: T1, Protein cereblon/Bromodomain-containing protein 4; assay: Photocaged-PROTAC activity at CRBN/BRD4 in human Ramos cells assessed as reduction in Brd4 protein level at 0.03 to 10 uM pre-incubated for 2 hrs under dark followed by UV light irradiation at 3 mW/cm^2 for 3 mins and measured after 12 hrs by Western blot analysis; type: cell-based; conditions: dose 0.03-10 µM, time 14.0 hrs
[14] = biological target: T1, Protein cereblon/Bromodomain-containing protein 4; assay: Photocaged-PROTAC activity at CRBN/BRD4 in human Ramos cells assessed as Brd4 protein degradation at 30 nM pre-incubated for 2 hrs under dark followed by 365 nm UV light irradiation for 3 mins and measured after 12 hrs by Western blot analysis; type: cell-based; conditions: time 14.0 hrs
[15] = biological target: T1, Protein cereblon/Bromodomain-containing protein 4; assay: Photocaged-PROTAC activity at CRBN/BRD4 in human Ramos cells assessed as Brd4 protein degradation at 10000 nM incubated for 12 hrs under dark by Western blot analysis; type: cell-based

DC50 [2] [nM] | DC50 [5] [nM] | DC50 [8] [nM] | Activity [11] | Structure (SMILES) | IC50 [1] [nM] | IC50 [3] [nM] | other results
< 30 | – | – | – | Cc1ncsc1-c1ccc(CN(Cc2cc3c(cc2[N+](=O)[O-])oc2ccccc23)C(=O)[C@@H]2C[C@@H](O)CN2C(=O)[C@@H](NC(=O)COCCOCCOCCOC(=O)C[C@@H]2N=C(c3ccc(Cl)cc3)c3c(sc(C)c3C)-n3c(C)nnc32)C(C)(C)C)cc1 | 1170 | 140 | Activity [4]: Active
– | > 10000 | > 10000 | – | COc1cc(CN(C(=O)COCCOCCOCCOC(=O)C[C@@H]2N=C(c3ccc(Cl)cc3)c3c(sc(C)c3C)-n3c(C)nnc32)[C@H](C(=O)N2C[C@H](O)C[C@H]2C(=O)NCc2ccc(-c3scnc3C)cc2)C(C)(C)C)c([N+](=O)[O-])cc1OC | – | – | Activity [6]: inactive; Activity [7]: inactive
– | 59 | 55 | – | COc1cc(CN(CCCCNC(=O)C[C@@H]2N=C(c3ccc(Cl)cc3)c3c(sc(C)c3C)-n3c(C)nnc32)C(=O)COc2cccc3c2C(=O)N(C2CCC(=O)NC2=O)C3=O)c([N+](=O)[O-])cc1OC (some centres not stated) | – | – | Activity [9]: Active
62 | – | – | Active | Cc1sc2c(c1C)C(c1ccc(Cl)cc1)=N[C@@H](CC(=O)N(CCCCNC(=O)COc1cccc3c1C(=O)N(C1CCC(=O)NC1=O)C3=O)Cc1cc3c(cc1[N+](=O)[O-])oc1cc(N(C)C)ccc13)c1nnc(C)n1-2 (some centres not stated) | > 10000 | 476 | Activity [10]: Active; Activity [12]: inactive
– | > 10000 | 148 | – | COc1cc(CON2C(=O)CCC(N3C(=O)c4cccc(OCC(=O)NCCCCNC(=O)C[C@@H]5N=C(c6ccc(Cl)cc6)c6c(sc(C)c6C)-n6c(C)nnc65)c4C3=O)C2=O)c([N+](=O)[O-])cc1OC (some centres not stated) | – | – | Activity [9]: inactive; Activity [13]: Active
– | > 10000 | 1980 | – | CCN(Cc1cc(OC)c(OC)cc1[N+](=O)[O-])C(=O)c1sc2c(c1C)C(c1ccc(Cl)cc1)=N[C@@H](CC(=O)NCCCCNC(=O)COc1cccc3c1C(=O)N(C1CCC(=O)NC1=O)C3=O)c1nnc(C)n1-2 (some centres not stated) | – | – | Activity [13]: Active
– | – | – | – | Cc1sc2c(c1C)C(c1ccc(Cl)cc1)=N[C@@H](CC(=O)NCCCCNC(=O)COc1cccc3c1C(=O)N(C1CCC(=O)NC1=O)C3=O)c1nnc(C)n1-2 (some centres not stated) | – | 317 | –
65 | – | – | Active | Cc1sc2c(c1C)C(c1ccc(Cl)cc1)=N[C@@H](CC(=O)N(CCCCNC(=O)COc1cccc3c1C(=O)N(C1CCC(=O)NC1=O)C3=O)C(C)c1cc3c(cc1[N+](=O)[O-])oc1ccccc13)c1nnc(C)n1-2 (some centres not stated) | > 10000 | 291 | Activity [10]: Active; Activity [12]: inactive
– | > 10000 | 2310 | – | COc1cc(CN2C(=O)CCC(N3C(=O)c4cccc(OCC(=O)NCCCCNC(=O)C[C@@H]5N=C(c6ccc(Cl)cc6)c6c(sc(C)c6C)-n6c(C)nnc65)c4C3=O)C2=O)c([N+](=O)[O-])cc1OC (some centres not stated) | – | – | Activity [9]: inactive
– | – | – | – | CCNC(=O)c1sc2c(c1C)C(c1ccc(Cl)cc1)=N[C@@H](CC(=O)NCCCCNC(=O)COc1cccc3c1C(=O)N(C1CCC(=O)NC1=O)C3=O)c1nnc(C)n1-2 (some centres not stated) | – | – | Activity [13]: Active
– | < 30 | < 30 | Active | COc1cc(COC(=O)O[C@@H]2C[C@@H](C(=O)NCc3ccc(-c4scnc4C)cc3)N(C(=O)[C@@H](NC(=O)COCCOCCOCCOC(=O)C[C@@H]3N=C(c4ccc(Cl)cc4)c4c(sc(C)c4C)-n4c(C)nnc43)C(C)(C)C)C2)c([N+](=O)[O-])cc1OC | – | – | Activity [7]: Active
32 | – | – | Active | Cc1sc2c(c1C)C(c1ccc(Cl)cc1)=N[C@@H](CC(=O)N(CCCCNC(=O)COc1cccc3c1C(=O)N(C1CCC(=O)NC1=O)C3=O)Cc1cc3oc4ccccc4c3cc1[N+](=O)[O-])c1nnc(C)n1-2 (some centres not stated) | > 10000 | 287 | Activity [10]: Active; Activity [12]: inactive
108 | – | – | Active | Cc1sc2c(c1C)C(c1ccc(Cl)cc1)=N[C@@H](CC(=O)NCCCCNC(=O)COc1cccc3c1C(=O)N(C1CCC(=O)N(OCc4cc5oc6ccccc6c5cc4[N+](=O)[O-])C1=O)C3=O)c1nnc(C)n1-2 (some centres not stated) | > 2350 | 741 | Activity [10]: Active
– | > 10000 | < 30 | Active | COc1cc(CN(Cc2ccc(-c3scnc3C)cc2)C(=O)[C@@H]2C[C@@H](O)CN2C(=O)[C@@H](NC(=O)COCCOCCOCCOC(=O)C[C@@H]2N=C(c3ccc(Cl)cc3)c3c(sc(C)c3C)-n3c(C)nnc32)C(C)(C)C)c([N+](=O)[O-])cc1OC | – | – | Activity [7]: Active; Activity [14]: Active; Activity [15]: inactive
– | – | – | – | Cc1ncsc1-c1ccc(CNC(=O)[C@@H]2C[C@@H](O)CN2C(=O)[C@@H](NC(=O)COCCOCCOCCNC(=O)C[C@@H]2N=C(c3ccc(Cl)cc3)c3c(sc(C)c3C)-n3c(C)nnc32)C(C)(C)C)cc1 | – | 170 | –
